Source: DBAASP
≈ marks a conversion by molar mass, not a printed value. One block for each compound: values may come before it.

Experiments:
Experiment in all cases: ≥ marks a high value that may be exact or a test limit, other limits are often not marked, values filed in µg/mL are converted to µM
[1] = system: Escherichia coli SPE 001
[2] = system: Escherichia coli K-12 594
[3] = system: Staphylococcus aureus NBRC 100910
[4] = system: Escherichia coli W3110
[5] = system: Staphylococcus aureus SPM 101
[6] = system: Staphylococcus aureus ATCC 6538P
[7] = system: Staphylococcus aureus SR1550
[8] = system: Candida albicans NBRC 1385
[9] = system: Enterococcus faecalis ATCC 29212
[10] = system: Klebsiella pneumoniae
[11] = system: Aeromonas salmonicida NCTC 7812
[12] = system: Enterococcus faecalis
[13] = system: Streptococcus iniae 00-1425
[14] = system: Pseudomonas aeruginosa
[15] = system: Escherichia coli
[16] = system: Streptococcus iniae
[17] = system: Shigella flexneri
[18] = system: Lactococcus garvieae
[19] = system: Aeromonas salmonicida
[20] = system: Staphylococcus aureus
[21] = system: Vibrio anguillarum ATCC 19264
[22] = system: Shigella flexneri ATCC 12022
[23] = system: Escherichia coli ATCC 25922
[24] = system: Aeromonas hydrophila
[25] = system: Lactococcus garvieae 00-1422
[26] = system: Vibrio alginolyticus
[27] = system: Pseudomonas aeruginosa PAK
[28] = system: Streptococcus sanguinis NY101
[29] = system: Streptococcus mitis ATCC 903
[30] = system: Streptococcus mutans UA159
[31] = system: Streptococcus gordonii Challis DL1
[32] = system: Vibrio anguillarum serotype O1
[33] = system: Yersinia enterocolitica BCRC 13999
[34] = system: Vibrio alginolyticus BCRC 12829
[35] = system: Klebsiella oxytoca BCRC 13985
[36] = system: Vibrio parahaemolyticus BCRC 10806
[37] = system: Pseudomonas aeruginosa BCRC 10944
[38] = system: Klebsiella aerogenes BCRC 10370
[39] = system: Listeria monocytogenes BCRC 14845
[40] = system: Staphylococcus aureus BCRC 10781
[41] = system: Vibrio parahaemolyticus
[42] = system: Escherichia coli BCRC 10675
[43] = system: Streptococcus equinus BCRC 14729
[44] = system: Staphylococcus xylosus BCRC 12930
[45] = system: Staphylococcus aureus BCRC 10780
[46] = system: Vibrio harveyi
[47] = system: Enterobacter cloacae BCRC 10401

- MIC [1]: 12.1 µM (≈ 16 µg/mL)
- MIC [2]: 15.1 µM (≈ 20 µg/mL)
- MIC [3]: 12.1 µM (≈ 16 µg/mL)
- MIC [4]: 12.1 µM (≈ 16 µg/mL)
- MIC [5]: 0.378 µM (≈ 0.5 µg/mL)
- MIC [6]: 1.51 µM (≈ 2 µg/mL)
- MIC [7]: 22.7 µM (≈ 30 µg/mL)
- MIC [8]: ≥ 48.4 µM
Structure (SMILES): CC(C)C[C@H](NC(=O)[C@H](CCCCN)NC(=O)[C@H](CC(C)C)NC(=O)[C@H](CC(C)C)NC(=O)[C@H](CC(C)C)NC(=O)[C@H](CC(C)C)NC(=O)[C@H](CC(C)C)NC(=O)[C@H](CCCCN)NC(=O)[C@H](CC(C)C)NC(=O)[C@@H](N)CCCCN)C(=O)N[C@@H](CCCCN)C(N)=O [KLKLLLLLKLK]

- MIC [9]: 1.26 µM (≈ 3.14 µg/mL)
- MIC [10]: 2.53 µM (≈ 6.3 µg/mL)
- MIC [11]: ≥ 80.3 µM
- MIC [12]: 5.02 µM (≈ 12.5 µg/mL)
- MIC [13]: 2.51 µM (≈ 6.25 µg/mL)
- MIC [14]: 10 µM (≈ 25 µg/mL)
- MIC [15]: 1.24 µM (≈ 3.1 µg/mL)
- MIC [16]: 1.24 µM (≈ 3.1 µg/mL)
- MIC [17]: 2.53 µM (≈ 6.3 µg/mL)
- MIC [18]: 1.77 µM (≈ 4.42 µg/mL)
- MIC [19]: 5.02 µM (≈ 12.5 µg/mL)
- MIC [20]: 1.24 µM (≈ 3.1 µg/mL)
- MIC [21]: 3.55 µM (≈ 8.85 µg/mL)
- MIC [22]: 20.1 µM (≈ 50 µg/mL)
- MIC [23]: 80.3 µM (≈ 200 µg/mL)
- MIC [24]: 0.642 µM (≈ 1.6 µg/mL)
- MIC [25]: 20.1 µM (≈ 50 µg/mL)
- MIC [26]: 2.53 µM (≈ 6.3 µg/mL)
Structure (SMILES): CC[C@H](C)[C@H](NC(=O)CNC(=O)[C@H](CCCN=C(N)N)NC(=O)[C@H](Cc1ccccc1)NC(=O)[C@@H](NC(=O)[C@H](Cc1cnc[nH]1)NC(=O)[C@H](Cc1cnc[nH]1)NC(=O)[C@@H](NC(=O)[C@@H](N)Cc1ccccc1)[C@@H](C)CC)[C@@H](C)CC)C(=O)N[C@H](C(=O)N[C@@H](Cc1cnc[nH]1)C(=O)N[C@@H](C)C(=O)NCC(=O)N[C@@H](CCCN=C(N)N)C(=O)N[C@@H](CO)C(=O)N[C@H](C(=O)NCC(=O)N[C@@H](CCCN=C(N)N)C(=O)N[C@@H](Cc1ccccc1)C(=O)N[C@@H](CC(C)C)C(=O)N[C@H](C(=O)NCC(=O)O)[C@@H](C)O)[C@@H](C)CC)C(C)C [FIHHIFRGIVHAGRSIGRFLTG]

- MIC [27]: 23.9 µM (≈ 62.5 µg/mL)
- MIC [28]: 12.2 µM (≈ 32 µg/mL)
- MIC [29]: 12.2 µM (≈ 32 µg/mL)
- MIC [30]: 3.05 µM (≈ 8 µg/mL)
- MIC [31]: 12.2 µM (≈ 32 µg/mL)
- MIC [20]: 12.2 µM (≈ 32 µg/mL)
Structure (SMILES): CC[C@H](C)[C@H](NC(=O)[C@H](Cc1ccccc1)NC(=O)CNC(=O)CNC(=O)[C@H](CO)NC(=O)[C@H](Cc1ccccc1)NC(=O)[C@H](Cc1c[nH]c2ccccc12)NC(=O)[C@H](CCCN=C(N)N)NC(=O)[C@H](Cc1c[nH]c2ccccc12)NC(=O)[C@H](CCCN=C(N)N)NC(=O)[C@H](Cc1c[nH]c2ccccc12)NC(=O)[C@@H](N)CCCN=C(N)N)C(=O)N[C@@H](CCCCN)C(=O)N[C@@H](Cc1cnc[nH]1)C(=O)N[C@@H](Cc1ccccc1)C(=O)N[C@H](C(=O)N[C@@H](Cc1cnc[nH]1)C(=O)N[C@@H](CCCN=C(N)N)C(=O)N[C@@H](Cc1ccccc1)C(N)=O)[C@@H](C)CC [RWRWRWFSGGFIKHFIHRF]

- MIC [32]: 28.9 µM (≈ 64 µg/mL)
- MIC [33]: ≥ 57.7 µM
- MIC [34]: ≥ 57.7 µM
- MIC [35]: 7.21 µM (≈ 16 µg/mL)
- MIC [37]: 28.9 µM (≈ 64 µg/mL)
- MIC [38]: 7.21 µM (≈ 16 µg/mL)
- MIC [39]: 28.9 µM (≈ 64 µg/mL)
- MIC [40]: ≥ 57.7 µM
- MIC [42]: 7.21 µM (≈ 16 µg/mL)
- MIC [16]: ≥ 57.7 µM
- MIC [43]: ≥ 57.7 µM
- MIC [18]: ≥ 57.7 µM
- MIC [44]: 28.9 µM (≈ 64 µg/mL)
- MIC [45]: ≥ 57.7 µM
- MIC [46]: 28.9 µM (≈ 64 µg/mL)
- MIC [47]: 7.21 µM (≈ 16 µg/mL)
- MIC [26]: 14.4 µM (≈ 32 µg/mL)
Structure (SMILES): CC[C@H](C)[C@H](NC(=O)[C@@H](NC(=O)[C@H](CCCCN)NC(=O)[C@H](Cc1ccc(O)cc1)NC(=O)[C@H](Cc1ccccc1)NC(=O)[C@H](CCCCN)NC(=O)[C@@H](NC(=O)[C@H](Cc1ccccc1)NC(=O)[C@H](C)NC(=O)[C@@H](NC(=O)[C@H](C)NC(=O)[C@H](C)NC(=O)[C@H](CCCCN)NC(=O)[C@@H](NC(=O)[C@H](CC(C)C)NC(=O)[C@H](C)NC(=O)[C@H](CCCCN)NC(=O)[C@H](C)NC(=O)CN)[C@@H](C)O)[C@@H](C)O)[C@@H](C)O)[C@@H](C)O)C(=O)N[C@@H](Cc1c[nH]c2ccccc12)C(=O)O [GAKALTKAATAFTKFYKTIW]
- MIC [36]: ≥ 57.7 µM
- MIC [41]: 14.4 µM (≈ 32 µg/mL)
